# Target: T1, Cyclin E/CDK2 (Homo sapiens, UniProt P24941)
# T1 construct: made in house; host or cells: insect cells
# Assay: CDK2 FlashPlate Assay (Rb phosphorylation, 33P-ATP)
# Type: biochemical
# Settings: Concentration 0.5 µM
# Method: To determine inhibition of CDK2 activity, purified recombinant retinoblastoma (Rb) protein was coated on 96 well FlashPlates (New England Nuclear, Boston, MA). Rb is a natural substrate for phosphorylation by CDK2 (Herwig and Strauss Eurr. J. Biochem., Vol. 246 (1997) pp. 581-601 and references therein). Recombinant active human Cyclin E/CDK2 complexes were partially purified from extracts of insect cells. The active Cyclin E/CDK2 was added to the Rb-coated FlashPlates along with ^33P-ATP and dilutions of test compounds. Plates were incubated for 25 minutes at room temperature with shaking, then washed and counted in the Topcount scintillation counter (Packard Instrument Co., Downers Grove, IL). Dilutions of test compounds were tested in duplicate in each assay. The percent inhibition of Rb phosphorylation, which is a measure of the inhibition of CDK2 activity, was determined according to the following formula: [formula] where "test compound" refers to the average counts per minute of the test duplicates, "nonspecific" refers to the average counts per minute when no Cyclin E/CDK2 was added, and "total" refers to the average counts per minute when no compound was added.
row,SMILES,inhibition at 0.5 µM
1,"COc1ccccc1Nc1nc2c3c(ccc2[nH]1)NC(=O)/C3=C\c1[nH]ccc1OC [II, (Z)-2-[N-(2-Methoxyphenyl)amino]-8-[(3-methoxy-1H-pyrrol-2-yl)methylene]-3,6,7,8-tetrahydro-pyrrolo[3,2-e]benzimidazol-7-one]",< 50%
2,"COc1cc[nH]c1/C=C1\C(=O)Nc2ccc3[nH]c(NCCCCc4ccccc4)nc3c21 [JJ, (Z)-8-[(3-Methoxy-1H-pyrrol-2-yl)methylene]-2-[N-(4-phenylbutyl)amino]-3,6,7,8-tetrahydro-pyrrolo[3,2-e]benzimidazol-7-one]",< 50%
3,"COc1ccc(CCNc2nc3c4c(ccc3[nH]2)NC(=O)/C4=C\c2[nH]ccc2OC)cc1OC [GG, (Z)-2-[N-[2-(3,4-Dimethoxyphenyl)ethyl]amino]-8-[(3-methoxy-1H-pyrrol-2-yl)methylene]-3,6,7,8-tetrahydro-pyrrolo[3,2-e]-benzimidazol-7-one]",< 50%
4,"COc1cc[nH]c1/C=C1\C(=O)Nc2ccc3[nH]c(NCCCc4ccccc4)nc3c21 [XX, (Z)-8-[(3-Methoxy-1H-pyrrol-2-yl)methylene]-2-[N-(3-phenylpropyl)amino]-3,6,7,8-tetrahydro-pyrrolo[3,2-e]benzimidazol-7-one]",< 50%
5,"CCOC(=O)c1ccc(Nc2nc3c4c(ccc3[nH]2)NC(=O)/C4=C\c2[nH]ccc2OC)cc1 [CC, (Z)-4-[[8-[(3-Methoxy-1H-pyrrol-2-yl)methylene]-7-oxo-3,6,7,8-tetrahydro-imidazo[4,5-e]indol-2-yl]amino]-benzoic acid ethyl ester]",< 50%
6,"COC(=O)c1ccc(Nc2nc3c4c(ccc3[nH]2)NC(=O)/C4=C\c2[nH]ccc2OC)cc1 [EE, (Z)-4-[[8-[(3-Methoxy-1H-pyrrol-2-yl)methylene]-7-oxo-3,6,7,8-tetrahydro-imidazo[4,5-e]indol-2-yl]amino]-benzoic acid methyl ester]",< 50%
7,"COc1ccc(Nc2nc3c4c(ccc3[nH]2)NC(=O)/C4=C\c2[nH]ccc2OC)cc1OC [Y, (Z)-2-[N-(3,4-Dimethoxyphenyl)amino]-8-[(3-methoxy-1H-pyrrol-2-yl)methylene]-3,6,7,8-tetrahydro-pyrrolo[3,2-e]benzimidazol-7-one]",< 50%
8,"COc1cc[nH]c1/C=C1\C(=O)Nc2ccc3[nH]c(Nc4cccc(C(C)=O)c4)nc3c21 [BB, (Z)-2-[N-(3-Acetylphenyl)amino]-8-[(3-methoxy-1H-pyrrol-2-yl)methylene]-3,6,7,8-tetrahydro-pyrrolo[3,2-e]benzimidazol-7-one]",< 50%
9,"COc1cc[nH]c1/C=C1\C(=O)Nc2ccc3[nH]c(Nc4ccc5c(c4)CCC5)nc3c21 [YY, (Z)-2-[N-(2,3-Dihydro-1H-inden-5-yl)amino]-8-[(3-methoxy-1H-pyrrol-2-yl)methylene]-3,6,7,8-tetrahydro-pyrrolo[3,2-e]-benzimidazol-7-one]",< 50%
10,"COc1ccc(Nc2nc3c4c(ccc3[nH]2)NC(=O)/C4=C\c2[nH]ccc2OC)cc1 [Z, (Z)-2-[N-(4-Methoxyphenyl)amino]-8-[(3-methoxy-1H-pyrrol-2-yl)methylene]-3,6,7,8-tetrahydro-pyrrolo[3,2-e]benzimidazol-7-one]",< 50%

# Same assay, conditions: recombinant human Cyclin E/CDK2, Rb substrate, 25 minutes at room temperature
row,SMILES,IC50
1,"COc1cc[nH]c1/C=C1\C(=O)Nc2ccc3[nH]c(NCC4CCCO4)nc3c21 (stereo not shown) [KK, (Z)-8-[(3-Methoxy-1H-pyrrol-2-yl)methylene]-2-[N-[(2-tetrahydrofuranyl)methyl]-amino]-3,6,7,8-tetrahydro-pyrrolo[3,2-e] benzimidazol-7-one]",< 3.5 µM
2,Cc1nc[nH]c1/C=C1\C(=O)Nc2ccc3[nH]cnc3c21 [SS],< 3.5 µM
3,"COc1ccc(Cc2nc3c4c(ccc3[nH]2)NC(=O)/C4=C\c2[nH]ccc2OC)cc1 [T, (Z)-2-[(4-Methoxyphenyl)methyl]-8-[(3-methoxy-1H-pyrrol-2-yl)methylene]-3,6,7,8-tetrahydro-pyrrolo[3,2-e]benzimidazol-7-one]",< 3.5 µM
4,"COc1cc[nH]c1/C=C1\C(=O)Nc2ccc3[nH]c(Nc4ccc(N(C)C)cc4)nc3c21 [DD, (Z)-2-[N-(4-Dimethylaminophenyl)amino]-8-[(3-methoxy-1H-pyrrol-2-yl)methylene]-3,6,7,8-tetrahydro-pyrrolo[3,2-e]-benzimidazol-7-one]",< 3.5 µM
5,"Cc1nc[nH]c1/C=C1\C(=O)Nc2ccc([N+](=O)[O-])c(F)c21 [OO, (Z)-1,3-Dihydro-4-fluoro-3-[(4-methyl-1H-imidazol-5-yl)methylene]-5-nitro-2H-indol-2-one]",< 3.5 µM
6,"COc1cc[nH]c1/C=C1\C(=O)Nc2ccc3[nH]c(C(O)c4ccccc4)nc3c21 (racemic) [U, rac-(Z)-2-(1-Hydroxy-1-phenyl-methyl)-8-[(3-methoxy-1H-pyrrol-2-yl)methylene]-3,6,7,8-tetrahydro-pyrrolo[3,2-e]benzimidazol-7-one]",< 3.5 µM
7,"COc1cc[nH]c1/C=C1\C(=O)Nc2ccc3[nH]c(CCc4ccc(O)cc4)nc3c21 [V, (Z)-2-[2-(4-Hydroxyphenyl)ethyl]-8-[(3-methoxy-1H-pyrrol-2-yl)methylene]-3,6,7,8-tetrahydro-pyrrolo[3,2-e]benzimidazol-7-one]",< 3.5 µM

# Next, values leading:
row,IC50,SMILES
1,< 3.5 µM,"COc1cc[nH]c1/C=C1\C(=O)Nc2ccc3nc[nH]c3c21 [TT, (Z)-8-[(3-Methoxy-1H-pyrrol-2-yl)methylene]-3,6,7,8-tetrahydro-pyrrolo-[3,2-e]benzimidazol-7-one]"
2,< 3.5 µM,"COc1cc[nH]c1/C=C1\C(=O)Nc2ccc3[nH]c(NC(C)c4ccccc4)nc3c21 (racemic) [HH, rac-(Z)-8-[(3-Methoxy-1H-pyrrol-2-yl)methylene]-2-[N-(1-phenylethyl)amino]-3,6,7,8-tetrahydro-pyrrolo[3,2-e]benzimidazol-7-one]"
3,< 3.5 µM,"O=C1Nc2ccc3[nH]c(-c4ccccc4)nc3c2/C1=C/c1ccc[nH]1 [O, (Z)-2-Phenyl-8-[(1H-pyrrol-2-yl)methylene]-3,6,7,8-tetrahydro-pyrrolo[3,2-e]benzimidazol-7-one]"
4,< 3.5 µM,"Cc1nc[nH]c1/C=C1\C(=O)Nc2ccc(N)c(N)c21 [RR, (Z)-4,5-Diamino-1,3-dihydro-3-[(4-methyl-1H-imidazol-5-yl)methylene]-2H-indol-2-one]"
5,< 3.5 µM,"Cc1nc[nH]c1/C=C1\C(=O)Nc2ccc([N+](=O)[O-])c(N)c21 [QQ, (Z)-4-Amino-1,3-dihydro-3-[(4-methyl-1H-imidazol-5-yl)methylene]-5-nitro-2H-indol-2-one]"
6,< 3.5 µM,"COc1cc[nH]c1/C=C1\C(=O)Nc2ccc3[nH]c(-c4ccccc4)nc3c21 [Q, (Z)-8-[(3-Methoxy-1H-pyrrol-2-yl)methylene]-2-phenyl-3,6,7,8-tatrahydro-pyrrolo[3,2-e]benzimidazol-7-one]"
7,< 3.5 µM,"COc1cc[nH]c1/C=C1\C(=O)Nc2ccc3[nH]c(CCCc4ccccc4)nc3c21 [W, (Z)-2-[3-(Phenyl)propyl]-8-[(3-methoxy-1H-pyrrol-2-yl)methylene]-3,6,7,8-tetrahydro-pyrrolo[3,2-e]benzimidazol-7-one]"
8,< 3.5 µM,"COCCCNc1nc2c3c(ccc2[nH]1)NC(=O)/C3=C\c1[nH]ccc1OC [X, (Z)-2-[N-(3-Methoxypropyl)amino]-8-[(3-methoxy-1H-pyrrol-2-yl)methylene]-3,6,7,8-tetrahydro-pyrrolo[3,2-e]benzimidazol-7-one]"
